Results as given in US4873081A, “Percutaneous absorption preparation” (priority 1986, dated 1989).
Where a name gives a salt, the structure may show the parent alone.

Key:
[1] = in vivo; set-up: species or system male Wistar rats; conditions: rat, topical or ocular; for AUC(0-t) at 36 h: AUC (0-36 hours)
From the text: In Table 1, the results obtained are shown. The calcium salts of the anti-inflammatory drugs in the ointment were absorbed to a much greater degree than the indomethacin (Rp. 1).

[2] = Absorption of the active ingredient from other bases or with other promoters; conditions: calcium thioglycolate as absorption promoter
[3] = tested on: adjuvant arthritis induced with M. butyricum; experiment: Adjuvant arthritis induced with M. butyricum; assay type: in vivo, male Wistar rats; conditions: for Inhibition: adjuvant arthritis; for Inhibition / Foot volume: day 16, mean ± S.D. of 6 rats; for Foot volume: 0.14 g gel ointment every other day from day 11 to 15, *p <0.05 vs control
Protocol: (§1) Experimental carrageenan edema was induced in groups of six male Wistar rats weighing 150-160 g. […] The gel without the drug was similarly applied to the control group. The treated area was immediately covered by aluminum foil and adhesive tape. Six hours later, 1% carrageenan solution was injected subcutaneously into the sole of the right hindpaw. The volumes of both hindpaw were measured hourly using a plethysmometer and the edema volume was calculated from the difference between the injected and non-injected paws. FIG. 3 indicates the effect on the carrageenan-induced paw edema of these ointments applied topically.
M. butyricum (Difco Lab., USA) suspended in paraffin oil was injected into the sole of right hindpaw of male Wistar rats weighing 150-160 g. […] The edema volumes were calculated by measuring the volumes of both hindpaws on day 16, according to the same procedure as described in Example 9.

[4] = tested on: shaved back skin; set-up: species or system male rabbits; conditions: rabbit, in vivo
Protocol: The evaluation of skin reactions was done by the erythema and edema scores 24 and 72 hours after application.

[5] = tested on: carrageenan-induced paw edema; experiment: Carrageenan-induced edema in hindpaw of rat; assay type: in vivo, male Wistar rats; conditions: 0.14 g gel ointment on abdominal skin 6 h before carrageenan
Protocol: as §1

[6] = Plasma concentration of indomethacin during multiple percutaneous dosing of ointment to rats; assay type: in vivo, male Wistar rats; conditions: 0.14 g per 1.0×1.0 cm
Protocol: The hair of the abdominal area of male Wistar rats weighing 250-300 g was removed in the same manner as described in Example 6. […] The rats were fixed in the Bollman cages for 24 hours. The ointment remained in contact with the skin for 24 hours, and then the unabsorbed ointment was wiped off. Subsequently, second and third applications of the ointment (0.14 g, 1.0×1.0 cm area) were made at different positions on the abdomen similar to the first application. The drug concentrations were determined by the same procedure as described in Example 6. FIG. 2 depicts the plasma indomethacin concentrations after the topical application of these ointments.

Structure (SMILES): O=C(O)COc1nn(Cc2ccccc2)c2ccccc12 [Bendazac calcium]
- AUC(0-t) at 36 h [1]: 460 ± 31.5 µg·h/mL

Structure (SMILES): O=C(O)Cc1ccccc1Nc1c(Cl)cccc1Cl [Diclofenac calcium]
- AUC(0-t) at 36 h [1]: 465 ± 32.4 µg·h/mL

Structure (SMILES): O=C(O)c1ccccc1Nc1cccc(C(F)(F)F)c1 [Flufenamate calcium]
- AUC(0-t) at 36 h [1]: 463 ± 18.9 µg·h/mL

Structure (SMILES): COc1ccc2c(c1)c(CC(=O)O)c(C)n2C(=O)c1ccc(Cl)cc1 [Indomethacin calcium, Calcium salt of indomethacin]
- absorption of the active ingredient on addition of calcium thioglycolate [2]: dramatically decrease the absorption
- Inhibition [3]: 51.0 ± 7.6%
- inhibitory effect on adjuvant arthritis ([3]; compared with indomethacin ointment): significant inhibitory effect, to the same extent as the indomethacin ointment
- Foot volume [3]: 2.38 ± 0.12 mL
- erythema produced by the ointment [4]: only slight erythema
- irritation produced by the ointment [4]: nearly negligible
- inhibitory effect on carrageenan-induced paw edema [5]: significantly higher inhibitory effect
- absorption through the skin compared with indomethacin ([6]; three 24 h applications): readily and quickly absorbed through the skin compared with indomethacin
- plasma levels after application of the gel ointment ([6]; multiple dosing, vs indomethacin ointment): much higher plasma levels
- Bioavailability [1]: 70.3 ± 4.1%
- AUC (0-36 hours) [1]: 473.4 ± 16.5 µg·h/mL

Structure (SMILES): COc1ccc2c(c1)c(CC(=O)O)c(C)n2C(=O)c1ccc(Cl)cc1 [Indomethacin, indomethacin, reference compound]
- Inhibition [3]: 55.4 ± 10.5%
- Foot volume [3]: 2.32 ± 0.16 mL
- erythema produced by the ointment [4]: only slight erythema
- irritation produced by the ointment [4]: nearly negligible
- Bioavailability [1]: 7.3 ± 1.4%
- AUC (0-36 hours) [1]: 50.4 ± 7.8 µg·h/mL

Structure (SMILES): Cc1cccc(Nc2ccccc2C(=O)O)c1C [Mefenamate calcium, Calcium mefenamate]
- AUC(0-t) at 36 h [1]: 470 ± 40.5 µg·h/mL
